This passage reports solubility results from patent US20150150851A1, “FORMULATION AND DOSING OF HSP90 INHIBITORY COMPOUNDS” (Synta Pharmaceuticals Corp., priority 2010, published 2015).

≈ marks a conversion by molar mass, not a printed value.

A short description of this data set: Equilibrium solubility in polysorbate 80 / PEG 300 mixtures (72 hours, HPLC). In kind it is physicochemical. As to conditions: organic solvent or mixture, thermodynamic from solid.

Usually solubility stands for how much of the substance goes into solution per volume.

With `CC(C)c1cc(-c2n[nH]c(=O)n2-c2ccc3c(ccn3C)c2)c(O)cc1O` [Compound 1, 3-(2,4-dihydroxy-5-isopropyl-phenyl)-4-(1-methyl-indol-5-yl)-5-hydroxy-[1,2,4] triazole], the solubility at 72 h is 76.1 mg/mL (≈ 209 mM) (polysorbate 80 / PEG 300 mixture, 40% PEG 300, 60% polysorbate 80, equilibrated 72 hours); 84.7 mg/mL (≈ 232 mM) (polysorbate 80 / PEG 300 mixture, 45% PEG 300, 55% polysorbate 80, equilibrated 72 hours); 96.2 mg/mL (≈ 264 mM) (polysorbate 80 / PEG 300 mixture, 50% PEG 300, 50% polysorbate 80, equilibrated 72 hours); more than 75 mg/mL (polysorbate 80 / PEG 300 mixtures, in all three polysorbate 80 / PEG 300 solutions).
